Data published in patent US20250026721A1, “COMPOUNDS AND METHODS FOR MODULATING RAS-PI3K” (Vividion Therapeutics, Inc., priority 2023, published 2025).

molecular target: T1, PIK3CA (Homo sapiens, UniProt P42336); assay: In vitro ELISA target engagement assay for PIK3CA in Jurkat cellular lysate (competition with PIK3CA Biotin Probe); format: binding; conditions: 1 hour at rt, then 500 nM PIK3CA Biotin Probe, read-out: Elisa Target Engagement Assay (TE50)
T1 construct: endogenous in cells; host or cells: Jurkat cell lysate
T1 sequence (P42336 whole entry): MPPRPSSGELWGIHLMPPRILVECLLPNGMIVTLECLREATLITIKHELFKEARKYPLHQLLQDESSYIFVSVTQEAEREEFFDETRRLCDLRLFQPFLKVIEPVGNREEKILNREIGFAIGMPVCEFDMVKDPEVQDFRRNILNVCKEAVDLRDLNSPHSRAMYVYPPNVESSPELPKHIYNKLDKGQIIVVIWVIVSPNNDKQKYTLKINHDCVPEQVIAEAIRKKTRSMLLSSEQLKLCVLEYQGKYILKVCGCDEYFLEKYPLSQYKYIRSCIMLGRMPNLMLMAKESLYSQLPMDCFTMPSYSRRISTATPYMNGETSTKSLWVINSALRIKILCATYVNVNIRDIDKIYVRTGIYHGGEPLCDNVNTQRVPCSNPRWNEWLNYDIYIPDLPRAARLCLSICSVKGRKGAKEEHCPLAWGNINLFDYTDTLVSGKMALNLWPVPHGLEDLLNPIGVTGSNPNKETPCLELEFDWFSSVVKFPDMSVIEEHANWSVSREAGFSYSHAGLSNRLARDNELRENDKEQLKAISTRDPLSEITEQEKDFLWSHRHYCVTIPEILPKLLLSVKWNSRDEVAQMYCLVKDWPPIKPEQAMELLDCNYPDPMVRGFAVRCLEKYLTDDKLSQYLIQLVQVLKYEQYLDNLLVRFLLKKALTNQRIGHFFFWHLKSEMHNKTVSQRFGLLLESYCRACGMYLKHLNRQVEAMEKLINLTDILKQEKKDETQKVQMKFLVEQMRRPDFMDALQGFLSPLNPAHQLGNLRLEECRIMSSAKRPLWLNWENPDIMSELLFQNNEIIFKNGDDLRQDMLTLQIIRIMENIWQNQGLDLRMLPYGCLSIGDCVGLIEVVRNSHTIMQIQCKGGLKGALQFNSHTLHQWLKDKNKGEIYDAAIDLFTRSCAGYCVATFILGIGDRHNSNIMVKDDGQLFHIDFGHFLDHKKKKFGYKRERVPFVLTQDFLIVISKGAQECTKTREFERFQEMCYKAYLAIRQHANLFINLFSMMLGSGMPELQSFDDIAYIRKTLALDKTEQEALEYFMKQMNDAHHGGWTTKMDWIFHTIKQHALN
T1 sequence (P27986 whole entry partner): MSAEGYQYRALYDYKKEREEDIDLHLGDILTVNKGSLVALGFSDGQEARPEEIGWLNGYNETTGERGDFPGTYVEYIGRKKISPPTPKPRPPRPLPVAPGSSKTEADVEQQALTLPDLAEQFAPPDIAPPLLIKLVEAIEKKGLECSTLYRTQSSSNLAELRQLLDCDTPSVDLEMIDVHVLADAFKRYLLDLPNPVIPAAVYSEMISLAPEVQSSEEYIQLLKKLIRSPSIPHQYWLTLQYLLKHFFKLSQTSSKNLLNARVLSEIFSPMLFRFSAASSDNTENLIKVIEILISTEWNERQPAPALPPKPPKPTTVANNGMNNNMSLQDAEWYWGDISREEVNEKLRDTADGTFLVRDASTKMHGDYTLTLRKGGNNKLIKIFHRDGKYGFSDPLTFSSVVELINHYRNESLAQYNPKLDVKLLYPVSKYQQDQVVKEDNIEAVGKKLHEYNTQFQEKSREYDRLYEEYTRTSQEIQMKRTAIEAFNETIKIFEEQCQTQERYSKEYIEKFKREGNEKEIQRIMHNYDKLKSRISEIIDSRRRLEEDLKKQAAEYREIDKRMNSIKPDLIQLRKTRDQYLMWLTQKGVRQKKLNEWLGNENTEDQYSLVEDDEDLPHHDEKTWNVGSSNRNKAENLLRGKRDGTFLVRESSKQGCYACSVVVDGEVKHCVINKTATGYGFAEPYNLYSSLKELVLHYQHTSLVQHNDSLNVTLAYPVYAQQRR
Method: Example 3. In Vitro ELISA Target Engagement Assay for […] Engagement of compounds on PIK3CA were assessed in Jurkat cellular lysate via a sandwich ELISA. A solution of PIK3CA Biotin Probe was generated at 10 mM and used in the biological testing. […] Treatment Protocol: Jurkat cellular lysate was generated from frozen cell pellets. Cells were thawed on ice and resuspended in cold Dulbecco's phosphate buffered saline (DPBS) (12 mL/300 e^6 cells) then lysed by probe sonication (12×3 second pulses). Jurkat lysate was plated (50 μl/well) in Armadillo 96 well PCR plates (Thermo Fisher catalog number AB2396). The lysate was treated with serial dilutions of test compounds up to 200 μM and incubated for 1 hour at rt. Following compound incubation, PIK3CA Biotin Probe was added to a final concentration of 500 nM, and lysate was mixed by pipetting gently and incubated for an additional 1 hour at rt. The mixture was then diluted in 75 μL Dilution buffer. The mixture was centrifuged for 5 minutes at 4122 g and stored at −80° C. until ELISA TE detection. ELISA TE Detection: Quantification of PIK3CA TE was initiated by coating of the ELISA plate (Thermo Scientific White 384-Well Immuno plates; Thermo Fisher catalog number 460372). The capture antibody was diluted in plating buffer (1:83) and added to the ELISA plate, 20 μl/well, overnight at 4° C. The plate was then washed twice with PBST, 100 μl/well, and blocked with addition of blocking buffer (100 μl/well, 1 hour at rt). During block, treated and probe labeled lysate was thawed. After Block, the block buffer was removed and the thawed lysate was added to the ELISA plate, 30 μl/well, for 1.5 hours at rt. Following lysate incubation, the assay plate was washed 3 times with PBST, 100 μl/well. The Neutravidin-HRP was then diluted (1:500 in dilution buffer) and added for 1 hour at rt, 20 μl/well. Following incubation, the assay plate was washed 4 times with PBST, 100 μl/well, HRP substrate was added to plate, 20 μl/well and luminescence signal was read (Clariostar Plate Reader). For each compound the potency of target engagement (TE50) was determined using Graphpad Prism.

SMILES	IC50 [nM]
COc1cccc(-c2ccccc2S(=O)(=O)N2CCC(F)(C(=O)N[C@@H](C)/C=C\S(C)(=O)=O)CC2)c1 [Compound 19, (S,Z)-4-fluoro-1-((3′-methoxy-[1,1′-biphenyl]-2-yl)sulfonyl)-N-(4-(methylsulfonyl)but-3-en-2-yl)piperidine-4-carboxamide]	744
C=C(C#N)CNC(=O)C1(F)CCN(S(=O)(=O)c2ccc(Br)cc2-c2ccccc2Cl)CC1 [Compound 72, 1-((5-bromo-2′-chloro-[1,1′-biphenyl]-2-yl)sulfonyl)-N-(2-cyanoallyl)-4-fluoropiperidine-4-carboxamide]	670
C[C@H](/C=C\S(C)(=O)=O)NC(=O)C1(F)CCN(S(=O)(=O)c2cc3sccc3cc2-c2ccccc2Cl)CC1 [Compound 157, (R,Z)-1-((5-(2-chlorophenyl)benzo [b]thiophen-6-yl)sulfonyl)-4-fluoro-N-(4-(methylsulfonyl)but-3-en-2-yl)piperidine-4-carboxamide]	200
COc1ccc(S(=O)(=O)N2CC[C@@](F)(C(=O)N[C@H](C)/C=C\S(C)(=O)=O)C[C@@H]2C)c(-c2ccccc2Cl)c1 (single isomer, unassigned) [Compound 148, (2*S,4*S)-1-((2′-chloro-5-methoxy-[1,1′-biphenyl]-2-yl)sulfonyl)-4-fluoro-2-methyl-N-((R,Z)-4-(methylsulfonyl)but-3-en-2-yl)piperidine-4-carboxamide]	600
C[C@H](/C=C\S(C)(=O)=O)NC(=O)C1(F)CCN(S(=O)(=O)c2ccc(CCO)cc2-c2ccccc2Cl)CC1 [Compound 128, (R,Z)-1-((2′-chloro-5-(2-hydroxyethyl)-[1,1′-biphenyl]-2-yl)sulfonyl)-4-fluoro-N-(4-(methylsulfonyl)but-3-en-2-yl)piperidine-4-carboxamide]	280
C[C@H](/C=C\S(C)(=O)=O)NC(=O)C1(F)CCN(S(=O)(=O)c2ccc(Br)cc2-c2cccc(F)c2Cl)CC1 [Compound 52, (R,Z)-1-((5-bromo-2′-chloro-3′-fluoro-[1,1′-biphenyl]-2-yl)sulfonyl)-4-fluoro-N-(4-(methylsulfonyl)but-3-en-2-yl)piperidine-4-carboxamide]	140
COCCc1cccc(-c2cc(Cl)ccc2S(=O)(=O)N2CCC(F)(C(=O)N[C@@H](C)/C=C\S(C)(=O)=O)CC2)c1 [Compound 125, (S,Z)-1-((5-chloro-3′-(2-methoxyethyl)-[1,1′-biphenyl]-2-yl)sulfonyl)-4-fluoro-N-(4-(methylsulfonyl)but-3-en-2-yl)piperidine-4-carboxamide]	610
C[C@H](/C=C\S(C)(=O)=O)NC(=O)C1(F)CCN(S(=O)(=O)c2ccc(Br)cc2-c2ccc(F)cc2Cl)CC1 [Compound 50, (R,Z)-1-((5-bromo-2′-chloro-4′-fluoro-[1,1′-biphenyl]-2-yl)sulfonyl)-4-fluoro-N-(4-(methylsulfonyl)but-3-en-2-yl)piperidine-4-carboxamide]	319
CCc1ccccc1-c1cc(Br)ccc1S(=O)(=O)N1CCC(F)(C(=O)N[C@H](C)/C=C\S(C)(=O)=O)CC1 [Compound 51, (R,Z)-1-((5-bromo-2′-ethyl-[1,1′-biphenyl]-2-yl)sulfonyl)-4-fluoro-N-(4-(methylsulfonyl)but-3-en-2-yl)piperidine-4-carboxamide]	550

Second part, the compound after the results:

IC50 [nM]	SMILES
830	CS(=O)(=O)C=C1CN(C(=O)C2(F)CCN(S(=O)(=O)c3ccc(Br)cc3-c3ccccc3Cl)CC2)C1 [Compound 273, (1-((5-bromo-2′-chloro-[1,1′-biphenyl]-2-yl)sulfonyl)-4-fluoropiperidin-4-yl)(3-((methylsulfonyl)methylene)azetidin-1-yl)methanone]
640	O=C(/C=C\CNC(=O)C1(F)CCN(S(=O)(=O)c2ccc(Br)cc2-c2ccccc2Cl)CC1)N1CCC1 [Compound 286, (Z)-N-(4-(azetidin-1-yl)-4-oxobut-2-en-1-yl)-1-((5-bromo-2′-chloro-[1,1′-biphenyl]-2-yl)sulfonyl)-4-fluoropiperidine-4-carboxamide]
490	COc1ccc(S(=O)(=O)N2CC[C@@](F)(C(=O)NC/C=C\C(=O)N3CC(F)(F)C3)C[C@H]2C)c(-c2ccccc2Cl)c1 [Compound 288, (2R,4S)-1-((2′-chloro-5-methoxy-[1,1′-biphenyl]-2-yl)sulfonyl)-N-((Z)-4-(3,3-difluoroazetidin-1-yl)-4-oxobut-2-en-1-yl)-4-fluoro-2-methylpiperidine-4-carboxamide]
200	O=C(/C=C/CNC(=O)C1(F)CCN(S(=O)(=O)c2ccc(C(F)(F)F)cc2-c2ccccc2Cl)CC1)N1CC(F)(F)C1 [Compound 283, (E)-1-((2′-chloro-5-(trifluoromethyl)-[1,1′-biphenyl]-2-yl)sulfonyl)-N-(4-(3,3-difluoroazetidin-1-yl)-4-oxobut-2-en-1-yl)-4-fluoropiperidine-4-carboxamide]
1000	C[C@H](/C=C\S(C)(=O)=O)NC(=O)C1(F)CCN(S(=O)(=O)c2cnc(C(F)(F)F)cc2-c2ccc(F)cc2Cl)CC1 [Compound 211, (R,Z)-1-((4-(2-chloro-4-fluorophenyl)-6-(trifluoromethyl)pyridin-3-yl)sulfonyl)-4-fluoro-N-(4-(methylsulfonyl)but-3-en-2-yl)piperidine-4-carboxamide]
700	C[C@H](/C=C\S(C)(=O)=O)NC(=O)C1(F)CCN(C(=O)[C@H]2CN(CC(F)(F)c3ccccc3)C[C@H]2c2ccccc2Cl)CC1 [Compound 181, 1-((3R,4R)-4-(2-chlorophenyl)-1-(2,2-difluoro-2-phenylethyl)pyrrolidine-3-carbonyl)-4-fluoro-N-((R,Z)-4-(methylsulfonyl)but-3-en-2-yl)piperidine-4-carboxamide]
740	C[C@H](/C=C\S(C)(=O)=O)NC(=O)C1(F)CCN(C(=O)[C@H]2CN(C3CC3)C[C@H]2c2ccccc2Cl)CC1 [Compound 304, 1-((3R,4R)-4-(2-chlorophenyl)-1-cyclopropylpyrrolidine-3-carbonyl)-4-fluoro-N-((R,Z)-4-(methylsulfonyl)but-3-en-2-yl)piperidine-4-carboxamide]
800	C[C@H](/C=C\S(C)(=O)=O)NC(=O)C1(F)CCN(C(=O)[C@H]2CN(C(=O)C(C)(C)C)C[C@H]2c2ccccc2Cl)CC1 [Compound 161, 1-((3R,4R)-4-(2-chlorophenyl)-1-pivaloylpyrrolidine-3-carbonyl)-4-fluoro-N-((R,Z)-4-(methylsulfonyl)but-3-en-2-yl)piperidine-4-carboxamide]
160	C[C@@H](C#CC(=O)N(C)C)NC(=O)C1(F)CCN(S(=O)(=O)c2ccc(Br)cc2-c2ccccc2Cl)CC1 [Compound 281, (S)-1-((5-bromo-2′-chloro-[1,1′-biphenyl]-2-yl)sulfonyl)-N-(5-(dimethylamino)-5-oxopent-3-yn-2-yl)-4-fluoropiperidine-4-carboxamide]
350	COc1ccc(C(=O)N2CCC[C@](F)(C(=O)N[C@H](C)/C=C\S(C)(=O)=O)CC2)c(-c2ccccc2Cl)c1 [Compound 295, (R)-1-(2′-chloro-5-methoxy-[1,1′-biphenyl]-2-carbonyl)-4-fluoro-N-((R,Z)-4-(methylsulfonyl)but-3-en-2-yl)azepane-4-carboxamide]
980	CC(C)OC(=O)N1C[C@H](C(=O)N2CCC(F)(C(=O)N[C@H](C)/C=C\S(C)(=O)=O)CC2)[C@H](c2ccccc2Cl)C1 [Compound 159, isopropyl(3R,4R)-3-(2-chlorophenyl)-4-(4-fluoro-4-(((R,Z)-4-(methylsulfonyl)but-3-en-2-yl)carbamoyl)piperidine-1-carbonyl)pyrrolidine-1-carboxylate]
420	C[C@H](/C=C\S(C)(=O)=O)NC(=O)C1(F)CCN(C(=O)[C@@H]2CCC3(CCC3)C[C@H]2c2ccccc2Cl)CC1 (racemic) [Compound 257, 1-((6*R,7*R)-6-(2-chlorophenyl)spiro[3.5]nonane-7-carbonyl)-4-fluoro-N-((R,Z)-4-(methylsulfonyl)but-3-en-2-yl)piperidine-4-carboxamide]
670	CCOC(=O)N1C[C@H](C(=O)N2CCC(F)(C(=O)N[C@H](C)/C=C\S(C)(=O)=O)CC2)[C@H](c2ccccc2Cl)C1 [Compound 160, ethyl (3R,4R)-3-(2-chlorophenyl)-4-(4-fluoro-4-(((R,Z)-4-(methylsulfonyl)but-3-en-2-yl)carbamoyl)piperidine-1-carbonyl)pyrrolidine-1-carboxylate]
150	C[C@H](C#CC(=O)N(C)C)NC(=O)C1(F)CCN(S(=O)(=O)c2ccc(Br)cc2-c2ccccc2Cl)CC1 [Compound 280, (R)-1-((5-bromo-2′-chloro-[1,1′-biphenyl]-2-yl)sulfonyl)-N-(5-(dimethylamino)-5-oxopent-3-yn-2-yl)-4-fluoropiperidine-4-carboxamide]
